The text below walks through data of US12102633B2, “Spirolactone compounds” (Quixgen, Inc., priority 2017, dated 2024).

Assay [1] relates to T1, Mouse ACC (ACC protein purified from liver).
T1 construct: ACC protein was purified by taking advantage of the biotinylation in the carboxylase domain
In words: Mouse ACC enzymatic activity assay. In kind it is biochemical. To be noted: read-out: EA-CoA mACC IC50. As for the experimental part:
ACC protein was purified by taking advantage of the biotinylation in the carboxylase domain. Male C57BL/6J mice (Jackson Laboratory) at 8-12 weeks of age were euthanized by using CO2 inhalation method and liver was immediately frozen on dry ice. To 100 mg liver was added 1 mL ice-cold tissue lysis buffer (20 mM Tris-HCl pH 7.5, 150 mM NaCl, 1 mM Na2EDTA, 1 mM EGTA, 1% Triton, 2.5 mM sodium pyrophosphate, 1 mM 3-glycerophosphate, 1 mM Na3VO4, 1 μg/mL leupeptin, 1 tablet of protease inhibitor cocktail (Roche) per 10 mL lysis buffer) followed by homogenization on ice with Power Gen 125 homogenizer (Fisher Scientific). After 30 min incubation on ice, tissue lysate was passed through a 10 mL syringe with 18½ G needle for 10 times to shear DNA. The lysate was then subject to 17.5%-35% saturated ammonium sulfate precipitation by adding 880 mg ammonium sulfate powder (Sigma) to 10 mL liver lysate in 10 min with stirring on ice. Sample was centrifuged at 14,000 rpm (Eppendorf) at 4° C. for 10 min and supernatant was saved for further precipitation by adding 880 mg ammonium sulfate powder to 10 ml supernatant in 10 min with stirring on ice. Sample was centrifuged at 14,000 rpm at 4° C. for 10 min. Supernatant was discarded and pellet was dissolved in 10 mL sample buffer (100 mM Tris-HCl, pH 7.5, 1 mM EDTA, 0.1 mM DTT, 0.5 M NaCl, and 5% glycerol). The sample was then added with 1 mL of Strep Mag beads slurry (Genscript) and rotated at 4° C. for 1 hour. Supernatant was discarded and beads were washed with sample buffer for 3 times. Protein was then eluted by adding 10 mL of 2 mM biotin (Promega) prepared in sample buffer. The eluate was then dialyzed at 4° C. for 1 hour by using Slide-A-Lyzer™ Dialysis Cassettes 10K MWCO (Thermo Fisher Scientific) against 3 changes of 200 mL dialysis buffer (50 mM HEPES, pH 7.5, 0.1 mM DTT, 1.0 mM EDTA, and 10% glycerol). Total protein concentration was then quantitated by using BCA protein assay kit (Pierce).
For ACC enzymatic activity assay, 1 μL serial diluted compounds prepared in DMSO in duplicate were mixed with 8 μL dialyzed sample at 37° C. for 10 min. Ninety one L of reaction buffer (50 mM HEPES pH 7.5, 10 mM MgCl2, 2.0 mM DTT, 0.5 mM acetyl-CoA, 4.0 mM ATP, 15 mM ^13C-NaHCO3, 0.75 mg/mL BSA, 0.5 mM sodium citrate) was added to the tube and mixed thoroughly. After incubation at 37° C. for 1 hour, 300 μl ice-cold quenching buffer (acetonitrile:methanol=1:1, 20 μM carbutamide as internal standard) was added to each tube and mixed well to terminate the reaction. Samples were centrifuged at 14,000 rpm for 10 min (Eppendorf) and supernatant was loaded onto LC-MS/MS for quantitation of malonyl-^13C-CoA (Gao et al., Journal of chromatography B, Analytical technologies in the biomedical and life sciences 853, 303-313 (2007)).
(§1) Shimadzu LC system was used for sample analysis consisting of system controller (Shimadzu CBM-20A), autosampler (Shimadzu SIL-20A), pump A and B (Shimadzu LC-20AD), column oven (Shimadzu CTO-20A), and analytical column (Phenomenex Gemini 5u C18 11A, 100×2 mm). LC was running at 200 μL/min in the binary gradient mode with mobile phase A (5 mM Ammonium Acetate and 5 mM DMBA in water (1,3-Dimethylbutylamine)) and B (methanol). The samples were analyzed on an AB Sciex QTrap4000 LC-MS/MS triple quadrupole mass spectrometer (Applied Biosystems). Malonyl-CoA and malonyl-13C-CoA were monitored in positive ion mode following MRM transitions at 854.2/347.1 and 855.1/246.1, respectively. The product and internal standard were coeluted to the mass spectrometer in 3 s with 50% H2O, 25% MeCN, 25% acetone, and 5 mM ammonium acetate. Ion chromatograms were integrated using the Analyst 1.5.2 software. Peak area ratios were compared against a standard curve and final cellular concentration of malonyl-CoA or production rate of malonyl-13C-CoA was calculated as pmoles/mg protein per minute.

Assay [2] relates to Human sebocytes. Kind of assay: Cellular levels of malonyl-CoA in human sebocytes. In kind it is cell-based. Particulars: 0.5 h, 30 min incubation, read-out: Malonyl-CoA in Sebo IC50. As for the experimental part: as §1
Human sebocytes (Celprogen) were grown in growth media (DMEM with 4.5 g/L glucose, 0.584 g/L L-glutamine (Sigma), 100 units/mL of penicillin and 100 μg/mL of streptomycin (Gibco), 10% fetal bovine serum (Gibco)) at 37° C. in a humidified water jacketed incubator (Forma Scientific) supplemented with 5% CO2 till 100% confluency. Cells grown in 152 cm^2 cell culture dish (Corning) were trypsinized with 0.25% trypsin-EDTA (Gibco), centrifuged at 800 rpm for 10 min (Eppendorf) and resuspended in 4 mL growth media. To 1 μL serial diluted compounds in DMSO, 99 μL cells (around 0.5 million cells suspended in growth media) were added and mixed well followed by incubation in cell culture incubator for 30 min. Cells were then centrifuged at 800 rpm for 10 min and 70 μL 10% trichloroacetic acid was added to each well to lyse the cells and precipitate proteins. Cellular levels of malonyl-CoA were quantitated by LC-MS/MS.

The next assay concerns 3T3-L1 adipocytes. Kind of assay: Lipogenesis of 3T3-L1 adipocytes. Type of assay: cell-based. To be noted: Mus musculus, TG readout, read-out: LG-3T3 IC50. The procedure: 3T3-L1 fibroblast cells (Zen-Bio) were grown in 96-well culture microplate (Corning) with growth media to around 90-100% confluency. Culture media was changed to differentiation media (growth media supplemented with 3-Isobutyl-1-Methylxanthine 500 μM, Dexamethasone 1 μM, insulin 10 μg/mL, and rosiglitazone 2 μM) plus serially diluted compounds prepared in DMSO (1:1000 dilution). After incubation for 2 days, media was changed to maintenance media (growth media supplemented with insulin 10 μg/mL) plus serially diluted compounds prepared in DMSO (1:1000 dilution) for around 1 week with media changed every 2 days. Upon completion of the treatment, culture media are discarded and 200 μL 0.01% SDS was added to each well and shaken for 1 hour to lyse the cells. Cell lysates were then transferred to 400 μL Folch's solution (chloroform: methanol=2:1) and mixed well. After centrifuge at 2,000 rpm for 20 min, 200 μL of the lower organic phase was transferred to a plate with 10 μL sample buffer (chloroform:Triton-100=3:1). Samples were blown dried under nitrogen and 200 μL triglyceride (TG) quantification reagent (Thermo Fisher Scientific) was added, mixed, and incubated at 37° C. for 30 min. TG concentration was determined by reading absorbance at 535 nm (Dynex MRX^e Magellan Biosciences) and calculated from standard curve.

The test system of assay [3] is Human sebocytes. Kind of assay: Lipogenesis of human sebocytes. Particulars: 96 hours, nile red, read-out: LG-Sebo IC50. In kind it is cell-based. As for the experimental part: Human sebocytes (Celprogen) were grown in collagen-coated 96-well culture microplate (White/Clear bottom, Coming BioCoat) with growth media till 100% confluency. Culture media was changed to growth media plus 100 μM arachidonic acid (Sigma) and 10 μM rosiglitazone (Tocris) with compounds prepared in DMSO (1:1000 dilution in growth media). Cells were treated with compounds for 96 hours with media containing compounds changed after 48 hours. Upon completion of treatment, cells were washed with 200 μL Phosphate Buffered Saline (PBS) and then fixed by adding 100 μL 4% formaldehyde (Sigma) and incubated at room temperature for 1 hour. Cells were then washed 3 times with PBS. Microplate was stained with 100 μL nile red solution prepared in PBS (2 mg/mL, 1:400 dilution) by incubating at 37° C. for 1 hour and then washed 3 times with PBS. The fluorescence was read at Ex 492 nm and Em 595 nm (TECAN SpectrofluorPlus). Effect of compounds on lipogenesis in sebocytes was calculated by % of DMSO vehicle control.

Assay [4] relates to Human sebocytes. Kind of assay: Proliferation of human sebocytes. Type of assay: cell-based. Particulars: 24 hours, MTT, read-out: AP-Sebo IC50. As for the experimental part: Human sebocytes (Celprogen) and keratinocytes (ATCC) were grown in 96-well culture microplate (Coming) with growth media to around 50% confluency. Media was changed to growth media mixed with serially diluted compounds in DMSO (1:1000 dilution). After treatment for 24 hours, media was changed to 100 μL phenol red free DMEM and cell numbers were quantitated by using Vybrant® MTT Cell Proliferation Assay Kit (Molecular Probes). Ten μL of 12 mM MTT stock solution was added to each well and the microplate was incubated at 37° C. for 4 hours. Then 100 μL of the SDS-HCl solution was added to each well and mixed thoroughly using a pipette. The microplate was incubated at 37° C. for 4 hours in a cell culture incubator. The microplate was mixed again using a pipette and absorbance was read at 570 nm (Dynex MRX^e Magellan Biosciences). Effect of compounds on proliferation of human keratinocytes was calculated by % of DMSO vehicle control.

A further assay has as its target T2, human ACC1 (Homo sapiens, UniProt Q13085).
T2 construct: purchased BPS Bioscience
In words: Human ACC enzymatic activity assay (ACC1). Type of assay: biochemical. To be noted: purified human ACC1; read-out: EA-CoA hACC 1 IC50. The procedure: (§2) Human ACC enzymatic activity assays were performed by using purified human ACC1 and ACC2 proteins (BPS Bioscience). ACC1 and ACC2 proteins were diluted in 24.5 μL reaction buffer (50 mM HEPES pH 7.5, 10 mM MgCl2, 2.0 mM DTT, 4.0 mM ATP, 15 mM ^13C-NaHCO3, 0.75 mg/mL BSA, 0.5 mM sodium citrate), and final concentrations of ACC1 and ACC2 were 0.4 μg/mL and 0.48 μg/mL. For each reaction, 0.5 μL of serial diluted compounds were prepared in DMSO in duplicate or triplicate and mixed with the above 24.5 μL reaction mixtures with ACC proteins at 37° C. for 10 min. Meanwhile, 25 μL of reaction buffer plus acetyl-CoA (final concentration: 5 μM) was prepared freshly and added to the above 25 μL mixture to initiate the reaction. After incubation at 37° C. for 1-2 hours, 100 μl ice-cold 10% TCA with malonyl-^13C3-CoA (final concentration: 40 nM, Sigma-Aldrich) was added to terminate the reaction. For LC-MS/MS analysis, 300 μL quenching buffer (acetonitrile:methanol=1:1, 20 μM carbutamide as internal standard) was added to each tube and mixed well. Samples were then centrifuged at 14,000 rpm for 10 min (Eppendorf) and supernatants were loaded onto LC-MS/MS for quantitation of […] (Gao et al., Journal of chromatography B, Analytical technologies in the biomedical and life sciences 853, 303-313 (2007)).
as §1

In another assay the target is T3, human ACC2 (Homo sapiens, UniProt O00763).
T3 construct: purchased BPS Bioscience
In words: Human ACC enzymatic activity assay (ACC2). In kind it is biochemical. To be noted: purified human ACC2; read-out: EA-CoA hACC 2 IC50. As for the experimental part: as §2, §1

Assay [5] relates to liver triglycerides (TG) in C57BL/6J mice. Kind of assay: Chronic treatment for reducing liver triglycerides in C57BL/6J mice. Type of assay: in vivo, mouse. Particulars: male C57BL/6J mice; 20 mg per kilogram body weight in 0.5% methylcellulose, oral gavage once per day for 2 weeks; FIG. 1, vs vehicle. The procedure: Male C57BL/6J mice (Jackson Laboratory) at around 9 weeks of age were treated with vehicle (0.5% methylcellulose or PEG400) or Example 14 (30 mg per kilogram body weight, dosing solution prepared in PEG400) and Example 20 (20 mg per kilogram body weight, dosing solution prepared in 0.5% methylcellulose) by oral gavage at ˜9:00 am, once per day for 2 weeks. Concentrations of Example 14 and Example 20 were 15 mg/ml and 2 mg/ml, respectively. The dosing volumes of Example 14 and Example 20 were 2 ml per kilogram body weight and 10 ml per kilogram body weight, respectively. After 14-day treatment, animals were euthanized in CO2 at 2 hours post dose and liver was frozen and kept on dry ice. Liver TG was measured by extracting lipids with chloroform:methanol 2:1 (v/v) followed by quantitation with Infinity™ Triglycerides Reagent (Thermo Scientific).

The conditions of assay [6]: in vivo; cited from earlier work.
For assay [7] the following is noted: in vivo; cited from earlier work. The source holds these as a separate data set.

Molecules are shown by their SMILES. “Also recorded” adds a separate entry of the source.

For orientation: IC50 means the concentration needed to halve the response being measured.

T3 sequence (O00763 whole entry): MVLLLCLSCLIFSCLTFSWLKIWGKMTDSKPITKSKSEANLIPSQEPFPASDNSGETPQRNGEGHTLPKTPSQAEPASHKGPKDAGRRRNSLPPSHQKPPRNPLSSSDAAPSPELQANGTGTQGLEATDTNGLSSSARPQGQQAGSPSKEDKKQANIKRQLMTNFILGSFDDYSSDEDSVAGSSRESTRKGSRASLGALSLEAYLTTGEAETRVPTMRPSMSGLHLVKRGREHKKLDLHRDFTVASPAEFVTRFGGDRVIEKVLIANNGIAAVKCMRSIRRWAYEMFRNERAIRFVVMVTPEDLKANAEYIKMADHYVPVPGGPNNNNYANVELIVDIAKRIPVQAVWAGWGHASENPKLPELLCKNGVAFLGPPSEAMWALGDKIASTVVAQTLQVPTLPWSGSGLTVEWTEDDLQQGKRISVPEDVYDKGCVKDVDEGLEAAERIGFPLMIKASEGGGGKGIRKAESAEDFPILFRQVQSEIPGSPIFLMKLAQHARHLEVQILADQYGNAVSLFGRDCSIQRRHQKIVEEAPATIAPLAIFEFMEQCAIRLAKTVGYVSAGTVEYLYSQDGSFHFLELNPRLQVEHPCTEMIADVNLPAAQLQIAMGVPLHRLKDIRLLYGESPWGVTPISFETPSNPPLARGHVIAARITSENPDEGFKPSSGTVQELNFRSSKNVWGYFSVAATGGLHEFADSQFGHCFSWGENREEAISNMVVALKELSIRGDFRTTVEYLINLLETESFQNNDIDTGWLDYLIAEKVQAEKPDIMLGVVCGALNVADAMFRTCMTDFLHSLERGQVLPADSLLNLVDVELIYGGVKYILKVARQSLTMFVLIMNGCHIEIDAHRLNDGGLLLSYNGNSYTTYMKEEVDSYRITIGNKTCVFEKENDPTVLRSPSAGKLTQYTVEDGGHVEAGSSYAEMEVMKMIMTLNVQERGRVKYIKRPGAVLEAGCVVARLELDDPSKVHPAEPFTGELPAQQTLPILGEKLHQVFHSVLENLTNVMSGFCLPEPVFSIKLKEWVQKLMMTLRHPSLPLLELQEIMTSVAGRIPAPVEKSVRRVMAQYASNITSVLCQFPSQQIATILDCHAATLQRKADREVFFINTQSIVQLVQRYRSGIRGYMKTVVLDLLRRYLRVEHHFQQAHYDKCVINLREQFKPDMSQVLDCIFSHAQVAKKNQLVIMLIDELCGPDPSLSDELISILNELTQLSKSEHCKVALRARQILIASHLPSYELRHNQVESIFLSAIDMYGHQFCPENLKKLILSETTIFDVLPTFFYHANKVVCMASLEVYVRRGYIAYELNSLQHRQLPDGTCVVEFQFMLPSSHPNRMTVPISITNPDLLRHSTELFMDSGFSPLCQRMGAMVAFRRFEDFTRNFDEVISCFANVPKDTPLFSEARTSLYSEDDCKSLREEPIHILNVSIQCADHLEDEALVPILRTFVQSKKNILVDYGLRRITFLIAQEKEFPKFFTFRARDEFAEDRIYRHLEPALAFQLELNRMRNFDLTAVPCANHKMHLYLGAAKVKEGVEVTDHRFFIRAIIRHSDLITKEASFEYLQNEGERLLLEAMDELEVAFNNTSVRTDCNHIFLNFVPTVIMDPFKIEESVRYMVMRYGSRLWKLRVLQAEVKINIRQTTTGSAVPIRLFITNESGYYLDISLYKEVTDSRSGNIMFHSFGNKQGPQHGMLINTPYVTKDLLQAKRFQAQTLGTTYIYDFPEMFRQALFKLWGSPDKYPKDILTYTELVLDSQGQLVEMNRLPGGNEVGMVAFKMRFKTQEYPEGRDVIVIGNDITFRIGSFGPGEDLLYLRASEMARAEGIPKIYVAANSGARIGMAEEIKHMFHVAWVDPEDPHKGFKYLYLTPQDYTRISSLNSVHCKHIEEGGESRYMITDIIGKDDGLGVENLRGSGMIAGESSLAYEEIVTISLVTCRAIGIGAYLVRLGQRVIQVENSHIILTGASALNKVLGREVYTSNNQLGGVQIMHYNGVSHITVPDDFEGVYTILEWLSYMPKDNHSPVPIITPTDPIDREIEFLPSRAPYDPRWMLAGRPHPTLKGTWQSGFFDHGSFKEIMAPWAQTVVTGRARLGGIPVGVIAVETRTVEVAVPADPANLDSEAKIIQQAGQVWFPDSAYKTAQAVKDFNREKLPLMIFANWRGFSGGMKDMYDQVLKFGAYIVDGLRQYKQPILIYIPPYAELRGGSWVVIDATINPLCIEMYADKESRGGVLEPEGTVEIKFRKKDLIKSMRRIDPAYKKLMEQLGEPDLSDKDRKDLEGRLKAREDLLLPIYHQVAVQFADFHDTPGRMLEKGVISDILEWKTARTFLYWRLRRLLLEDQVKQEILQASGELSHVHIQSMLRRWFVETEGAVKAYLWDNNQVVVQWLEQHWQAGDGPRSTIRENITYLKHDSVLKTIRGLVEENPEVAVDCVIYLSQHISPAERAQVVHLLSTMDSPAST

In the case of `COc1cc(C(=O)N2CCC3(CC2)Cc2ccc(C(C)C)cc2C(=O)O3)cc2c(OC)cccc12` [Example 1, 1′-(4,8-dimethoxy-2-naphthoyl)-7-isopropylspiro[isochroman-3,4′-piperidin]-1-one], the IC50 in assay [1] was 0.0037 µM; in the assay on Human sebocytes [2] it was 0.0415 µM; in the assay with 3T3-L1 adipocytes it was 0.0013 µM; in the assay with Human sebocytes [3] it was 0.01 µM; in the assay with Human sebocytes [4], 0.0933 µM.
On to `COc1cc(C(=O)N2CCC3(CC2)Cc2ccc(-c4cncc(C(=O)O)c4)cc2C(=O)O3)nc2c(C3CC3)cccc12` [Example 20, 5-(1′-(8-cyclopropyl-4-methoxyquinoline-2-carbonyl)-1-oxospiro[isochroman-3,4′-piperidin]-7-yl)nicotinic acid], for which the IC50 at human ACC1 amounted to 0.148 µM; on human ACC2, 0.152 µM. Also, the “Liver TG” value in [5] is “reduced liver triglycerides; also recorded: reduced liver TG”.
As for `CCCCCCCCCCCCCCOc1ccc(C(=O)OCC(=O)N(C)CC(=O)OCC)o1` [olumacostat glasaretil], the “Phase II data” value in assay [6] is “positive”. Moreover, in assay [7], the “Primary endpoints in phase III study” value is on record as “did not meet its primary endpoints”.
